Reference: patent publication US11760773B2, “Small molecule drug conjugates of gemcitabine monophosphate” (MaveriX Oncology, Inc., priority 2018, dated 2023)

Legend:
[1] = Comparative dog plasma PK of Int 1-4 versus gemcitabine (study k); assay type: in vivo; details: male beagle dog
Procedure: Objectives: to compare the plasma pharmacokinetics and stability of Int-4 in plasma following single intravenous infusion administration of Int 1-4 at 5 mg/kg and 10 mg/kg versus gemcitabine at 5 mg/kg in the male Beagle dog

[2] = Comparative plasma PK of Int 1-4 versus gemcitabine in mouse (study a); assay type: in vivo; details: CD-1 mice; for AUC0-inf/AUC0-last / AUC0-last / AUC(0-inf) / Cmax / MRT0-inf / MRT0-last / T1/2 / Tmax: plasma
[3] = Comparative PK of Int 1-4 versus gemcitabine in rat plasma (study i); assay type: in vivo, Sprague-Dawley rats; details: plasma, Sprague-Dawley rat
Excerpt: PK measurements: compare PK parameters C0, CL, Vdss, Cmax, tmax, t1/2, AUC(0-t), AUC(0-inf), MRT(0-t), MRT(0-inf) for Int 1-4 and gemcitabine.

[4] = Comparative plasma PK of Compound 1 versus Int 1-4 in male CD-1 mice (study b); assay type: in vivo
Procedure: Objectives: to compare the plasma pharmacokinetics and stability of Compound 1 with its non-phosphorylated SMDC analog (Int 1-4) and in plasma following a single intravenous infusion administration of Compound 1 at 11.6 mg/kg and 23.2 mg/kg with Int 1-4 (formulation F1 & F2) at 10.0 mg/kg in male CD-1 mice
PK measurements: compare PK parameters C0, CL, Vdss, Cmax, tmax, t1/2, AUC(0-t), AUC(0-inf), MRT(0-t), MRT(0-inf) for Compound 1 and Int 1-4

[5] = Compound 1 and gemcitabine plasma PK in the male cynomolgus monkey (study h); assay type: in vivo; details: plasma
Procedure: Objectives: to compare the plasma pharmacokinetics and stability of the Compound 1 with Int 1-4 and in plasma following a single intravenous infusion administration of Compound 1 at 5 mg/kg and 10 mg/kg with equimolar gemcitabine at 2.28 mg/kg in male cynomolgous monkeys.
PK measurements: compare PK parameters C0, CL, Vdss, Cmax, tmax, t1/2, AUC(0-t), AUC(0-inf), MRT(0-t), MRT(0-inf) for Compound 1 and Int 1-4 with gemcitabine.

[6] = Int 1-4 and gemcitabine comparative PK in male cynomolgus monkey (study g); assay type: in vivo; details: plasma, male cynomolgus monkey
Procedure: Objectives: to compare the plasma pharmacokinetics and stability of Int 1-4 versus gemcitabine in plasma following single intravenous infusion administration of Int 1-4 at 5 mg/kg and 10 mg/kg with equimolar gemcitabine at 2.65 mg/kg and 5.29 mg/kg in male cynomolgous monkeys
PK measurements: compare PK parameters C0, CL, Vdss, Cmax, tmax, t1/2, AUC(0-t), AUC(0-inf), MRT(0-t), MRT(0-inf) for Int 1-4 with gemcitabine

[7] = after iv Int 1-4 5 mg/kg (study k)
[8] = after iv Int 1-4 10 mg/kg (study k)
[9] = after iv gemcitabine 5.29 mg/kg
[10] = after iv gemcitabine 4.47 mg/kg
[11] = after iv Int 1-4 10.0 mg/kg, Formulation 1
[12] = after iv Int 1-4 10.0 mg/kg, Formulation 2
[13] = after iv gemcitabine 2.28 mg/kg
[14] = after iv Int 1-4 5 mg/kg (study g)
[15] = after iv Int 1-4 10 mg/kg (study g)
[16] = after iv gemcitabine 2.65 mg/kg

AUC0-last [1, 7]: 9863 ng·h/mL | AUC(0-inf) [1, 7]: 13743 ng·h/mL | Cmax [1, 7]: 715 ng/mL | MRT0-inf [1, 7]: 18.22 h | MRT0-last [1, 7]: 9.89 h | Tmax [1, 7]: 4.00 h | t1/2 [1, 7]: 11.79 h | AUC0-last [1, 8]: 11700 ng·h/mL | AUC(0-inf) [1, 8]: 13800 ng·h/mL | Cmax [1, 8]: 936 ng/mL | MRT0-inf [1, 8]: 12.99 h | MRT0-last [1, 8]: 8.94 h | Tmax [1, 8]: 2.00 h | t1/2 [1, 8]: 8.40 h | AUC0-last [1, 9]: 20133 ng·h/mL | AUC(0-inf) [1, 9]: 23967 ng·h/mL | Cmax [1, 9]: 1813 ng/mL | MRT0-inf [1, 9]: 13.31 h | MRT0-last [1, 9]: 8.71 h | Tmax [1, 9]: 3.00 h | plasma levels of dFdU higher than gemcitabine, based on the ratios of AUC0-last [2, 9]: ~500% | AUC0-inf/AUC0-last ([2]; after iv Int 1-4 9.4 mg/kg): 120% | AUC0-last ([2]; after iv Int 1-4 9.4 mg/kg): 1039 ng·h/mL | AUC(0-inf) ([2]; after iv Int 1-4 9.4 mg/kg): 1440 ng·h/mL | Cmax ([2]; after iv Int 1-4 9.4 mg/kg): 253 ng/mL | MRT0-inf ([2]; after iv Int 1-4 9.4 mg/kg): 4.65 h | MRT0-last ([2]; after iv Int 1-4 9.4 mg/kg): 2.73 h | T1/2 ([2]; after iv Int 1-4 9.4 mg/kg): 3.08 h | Tmax ([2]; after iv Int 1-4 9.4 mg/kg): 1.00 h | AUC0-inf/AUC0-last [2, 9]: 111% | AUC0-last [2, 9]: 6827 ng·h/mL | AUC(0-inf) [2, 9]: 8187 ng·h/mL | Cmax [2, 9]: 1600 ng/mL | MRT0-inf [2, 9]: 3.49 h | MRT0-last [2, 9]: 2.56 h | T1/2 [2, 9]: 2.23 h | Tmax [2, 9]: 0.667 h | AUC0-last ([3]; after iv Int 1-4 10.0 mg/kg): 288 ng·h/mL | Cmax ([3]; after iv Int 1-4 10.0 mg/kg): 66.5 ng/mL | MRT0-last ([3]; after iv Int 1-4 10.0 mg/kg): 5.55 h | Tmax ([3]; after iv Int 1-4 10.0 mg/kg): 8.00 h | AUC0-last [3, 10]: 1085 ng·h/mL | Cmax [3, 10]: 222 ng/mL | MRT0-last [3, 10]: 5.25 h | Tmax [3, 10]: 8.00 h | AUC0-last ([4]; after iv Compound 1 11.6 mg/kg): 967 ng·h/mL | AUC(0-inf) ([4]; after iv Compound 1 11.6 mg/kg): 786 ng·h/mL | Cmax ([4]; after iv Compound 1 11.6 mg/kg): 220 ng/mL | MRT0-inf ([4]; after iv Compound 1 11.6 mg/kg): 3.81 h | MRT0-last ([4]; after iv Compound 1 11.6 mg/kg): 3.70 h | Tmax ([4]; after iv Compound 1 11.6 mg/kg): 3.25 h | t1/2 ([4]; after iv Compound 1 11.6 mg/kg): 2.38 h | AUC0-last ([4]; after iv Compound 1 23.2 mg/kg): 1960 ng·h/mL | AUC(0-inf) ([4]; after iv Compound 1 23.2 mg/kg): 1830 ng·h/mL | Cmax ([4]; after iv Compound 1 23.2 mg/kg): 378 ng/mL | MRT0-inf ([4]; after iv Compound 1 23.2 mg/kg): 4.48 h | MRT0-last ([4]; after iv Compound 1 23.2 mg/kg): 3.65 h | Tmax ([4]; after iv Compound 1 23.2 mg/kg): 4.00 h | t1/2 ([4]; after iv Compound 1 23.2 mg/kg): 2.86 h | AUC0-last [4, 11]: 983 ng·h/mL | AUC(0-inf) [4, 11]: 1124 ng·h/mL | Cmax [4, 11]: 213 ng/mL | MRT0-inf [4, 11]: 4.67 h | MRT0-last [4, 11]: 3.59 h | Tmax [4, 11]: 4.00 h | t1/2 [4, 11]: 3.06 h | AUC0-last [4, 12]: 1106 ng·h/mL | AUC(0-inf) [4, 12]: 1625 ng·h/mL | Cmax [4, 12]: 236 ng/mL | MRT0-inf [4, 12]: 5.89 h | MRT0-last [4, 12]: 3.95 h | Tmax [4, 12]: 4.00 h | t1/2 [4, 12]: 4.15 h | AUC0-last ([5]; after iv Compound 1 5 mg/kg): 3397 ng·h/mL | AUC(0-inf) ([5]; after iv Compound 1 5 mg/kg): 8767 ng·h/mL | Cmax ([5]; after iv Compound 1 5 mg/kg): 321 ng/mL | MRT0-inf ([5]; after iv Compound 1 5 mg/kg): 34.42 h | MRT0-last ([5]; after iv Compound 1 5 mg/kg): 8.98 h | Tmax ([5]; after iv Compound 1 5 mg/kg): 0.39 h | t1/2 ([5]; after iv Compound 1 5 mg/kg): 24.00 h | AUC0-last [5, 13]: 12467 ng·h/mL | AUC(0-inf) [5, 13]: 17600 ng·h/mL | Cmax [5, 13]: 2153 ng/mL | MRT0-inf [5, 13]: 18.06 h | MRT0-last [5, 13]: 8.21 h | Tmax [5, 13]: 0.04 h | t1/2 [5, 13]: 12.90 h | AUC0-last [6, 14]: 4117 ng·h/mL | AUC(0-inf) [6, 14]: 5555 ng·h/mL | Cmax [6, 14]: 302 ng/mL | MRT0-inf [6, 14]: 24.01 h | MRT0-last [6, 14]: 10.31 h | Tmax [6, 14]: 1.69 h | t1/2 [6, 14]: 16.86 h | AUC0-last [6, 15]: 5120 ng·h/mL | AUC(0-inf) [6, 15]: 7903 ng·h/mL | Cmax [6, 15]: 595 ng/mL | MRT0-inf [6, 15]: 18.02 h | MRT0-last [6, 15]: 8.30 h | Tmax [6, 15]: 0.67 h | t1/2 [6, 15]: 12.87 h | AUC0-last [6, 16]: 7703 ng·h/mL | AUC(0-inf) [6, 16]: 8837 ng·h/mL | Cmax [6, 16]: 1973 ng/mL | MRT0-inf [6, 16]: 9.35 h | MRT0-last [6, 16]: 6.41 h | Tmax [6, 16]: 0.09 h | t1/2 [6, 16]: 5.89 h
SMILES: O=c1ccn(C2OC(CO)C(O)C2(F)F)c(=O)[nH]1 (stereo not drawn) [dFdU]
